Experimental data as given in patent US8003345B2, “Antioxidant pharmaceutical compound, method for producing polypeptide and method of cure” (Institute of Cell Biophysics Russian Academy of Sciences, priority 2002, dated 2011).

How the values were obtained:
glutamine synthetase = experiment: Comparative characteristics of peroxiredoxin activators (glutamine synthetase protection against metal-catalyzed oxidative system); type: biochemical; conditions: 50 μg peroxiredoxin VI, FIG. 11
Protocol: The antioxidant activity was determined from the degree of glutamine synthetase protection against metal-catalyzed oxidative system. The antioxidant effectiveness of thiols was determined in molar concentration, at which 50% protection of glutamine synthetase took place.
For determining the effectiveness of peroxiredoxin activation with dithiothreitol or with dihydrolipoic acid (natural activator), use is made of the ability of peroxiredoxin to protect glutamine synthetase from inactivation caused by the metal-catalyzed oxidative system.
The degree of the peroxiredoxin activity was determined from the protein concentration value, at which 50% preservation of the glutamine synthetase activity was observed.

[1] = system: tracheal epithelium of rat after application of lipopolysaccharide; experiment: Inflammation of rat tracheal epithelium caused by lipopolysaccharide (LPS); type: in vivo
Protocol: The therapeutic properties of peroxiredoxin Prx VI in treating the upper respiratory tract of rat immediately after the application of LPS were checked on a group of 4 Wistar line rats weighing 150-200 grams. The application of LPS was carried out in the following manner. The rats were anesthetized with hexenal, and 100 μl of a lipopolysaccharide solution were introduced through a catheter (the lipopolysaccharide concentration was from 10^−9 to 10^−11 mg/ml, the total number of the used animals was 20). After the application of the lipopolysaccharide, the rats were maintained for a definite period of time (1 hour, 3 hours, 6 hours, 7 hours, 9 hours), then narcotized with hexenal (300 mg/kg weight), and a sample of the tracheal epithelial tissue was isolated. For histochemical investigations the isolated sample was placed into a fixing solution containing 2% of formaldehyde and 0.5% of glutaraldehyde. The tissue was dehydrated by sequential routing through ethyl alcohol with increasing concentration (40-100%). The tissue was embedded into LR white resin. The resin was polymerized at room temperature. 0.5 em-thick sections were made on an LKB ultratome (Sweden), using glass knives. The sections were stained with a hematoxylin-eosine and analyzed under a light microscope.
For biochemical investigations we scraped the epithelium with a thin spatula, washed off the scrape with physiological solution and centrifugated at 10000 g for 15 min. The concentration of hydrogen peroxide was by the luminescence method. […] After LPS, application of a solution of a composition based on peroxiredoxin Prx VI into the trachea was carried out. Preliminarily the rats were narcotized by intraperitoneal administration of hexenal (70 mg/kg), the animals were fixed on an operating table, and under visual control with the aid of a binocular lens, through a catheter of 1 mm in diameter, peroxiredoxin solution (20 to 100 μl) was introduced into the trachea. The peroxiredoxin concentration was from 0.5 to 5.0 mg/ml. A 0.9% solution of NaCl was used as the solvent. The application of the solution of the composition was carried out once, immediately after the application of LPS. The application of pure solvent, solutions of serum albumin (10 mg/ml) and of glutathione (10 mM) were used as control.
Histological investigation of the trachea was carried out 24 hrs after the LPS application.

[2] = system: tracheal epithelium of rat after application of lipopolysaccharide; experiment: as above; type: in vivo; remark: listed apart in the source
skin cuts of rats = experiment: Treating skin wounds (cuts) in rats; type: in vivo, rat; conditions: in 5 days; 0.5 mg/ml in 0.15 M NaCl, bandages changed once a day; against control; FIG. 10
Protocol: Rats were preliminarily narcotized by intraperitoneal introduction of hexenal (70 mg/kg). The animals were fixed on an operating table, and then 2-3 mm deep and 1 cm long cuts were made in the skin of both paws with the help of a razor blade. Control cuts were irrigated with physiological solution and a bactericidal plaster was applied; in the case of using peroxiredoxin, the wound was irrigated with a solution of recombinant Prx Vlhum or of its fragment ΔPrx Vlhum in 0.15 M NaCl in 0.5 mg/ml concentration, and a gauze bandage soaked with the same solutions was applied. The bandages were changed once a day.

[3] = system: glutamine synthetase of E.coli; conditions: DTT/Fe3+/O2 oxidative system, 3 mM activator, 10 min at 37° C.; FIG. 3
Protocol: Comparison of the protector properties of recombinant full-size Prx Vlhum with the protector properties of natural rat Prx VIrat and with the protector properties of N-terminal ΔPrx V1hum in terms of protecting glutamine synthetase of E.coli from inactivation in a model oxidative system in vitro.
For determining the activity of different types of peroxiredoxins, their ability to protect glutamine synthetase from the DTT/Fe^+3/O2 oxidative system is measured. Glutamine synthetase is isolated from cells of the E.coli DH5α strain (Streicher S. L., Tyler B., 1980) and inactivated in the presence of a Fe^3+/O2 oxidative system and a peroxiredoxin activator—in the model oxidative system generating free radicals (Kim K. et al., 1988). […] The residual activity of glutamine synthetase is assessed by adding to the sample 200 μl of a reaction mixture which comprises: ADP, 0.4 mM; glutamine, 150 mM; K—AsO4, 10 mM; NH2OH, 20 mM; MnCl2, 0.4 mM; HEPES, 100 mM, pH 7.4. […] The protector properties of peroxiredoxin for protecting glutamine synthetase of E.coli from inactivation are determined as the ratio of the remaining activity of the enzyme after the inactivation in the presence of different concentrations of peroxiredoxin to the activity of non-inactivated glutamine synthetase.

[4] = Cytotoxicity: number of live line L929 cells; type: cell-based, human; conditions: 0.1-10 μg/ml concentration; Trypan stain
Protocol: (§1) The cytotoxicity is determined from the influence of recombinant Prx V1hum or of natural rat Prx V1rat on the level of proliferation of line L929 human lymphoblastoma cells and of T-lymphocytes from the spleen of line NRRI rats stimulated with concavalin A.
(§2) Cells of two lines with the concentration of 10^4 cells/ml medium were cultivated in RPMI 1640 containing 5% of bovine fetal serum. The stimulation of T-lymphocytes was carried out with the 0.1 μg/ml concentration of concavalin. In the case of T-lymphocytes the proliferation level was determined from the inclusion of ^3H-thymidine. The number of live line L929 cells was determined in a 96-cell plate with the aid of a Trypan stain, followed by scanning on a Multiscan multichannel photometer (LKB, Sweden).

[5] = system: T-lymphocytes from the spleen of line NRRI rats stimulated with concavalin A; experiment: Proliferation of concanavalin A-stimulated T-lymphocytes (3H-thymidine inclusion); type: cell-based; conditions: 0.1-1.0 mg/ml concentration, against cells stimulated only with concavalin A
Protocol: as §1, §2

Molecule: O=C(O)CCCC[C@@H](S)CCS (racemic) [dihydrolipoic acid]
- antioxidant effectiveness of thiols (degree of glutamine synthetase protection) (glutamine synthetase): almost equal to dithiothreitol and substantially surpasses the effectiveness of lipoic acid

Molecule: N[C@@H](CCC(=O)N[C@@H](CS)C(=O)NCC(=O)O)C(=O)O [Glutathione, glutathione, reference compound]
- Integrity of tracheal epithelium (according to histological data) ([1]; Time after the action of LPS: 1 hour): 30%
- Integrity of tracheal epithelium (according to histological data) ([1]; Time after the action of LPS: 3 hours): 20%
- Integrity of tracheal epithelium (according to histological data) ([1]; Time after the action of LPS: 6 hours): 10%
- Integrity of tracheal epithelium (according to histological data) ([2]; Treatment 24 hours later for 5 days and the integrity of epithelium 2 weeks later): 20%
- effect on tracheal epithelium after LPS (in words) ([2]; other antioxidants, see Table 2): no significant effect

B1: ΔPrx VIhum: N-terminal fragment of human peroxiredoxin Prx VI (SEQ ID NO: 2), length 177 a.b., molecular mass 19691.61 Da (protein, listed as Homo sapiens)
chain: MPGGLLLGDVAPNFEANTTVGRIRFHDFLGDSWGILFSHPRDFTPVCTTELGRAAKLAPEFAKRNVKLIALSIDSVEDHLAWSKDINAYNCEEPTEKLPFPIIDDRNRELAILLGMLDPAEKDEKGMPVTARVVFVFGPDKKLKLSILYPATTGRNFDEILRVVISLQLTAEKRVATPVDWKDGDSVMVLPTIPEEEAKKLFPKGVFTKELPSGKKYLRYTPQP
- healing of the wound (skin cuts of rats): almost complete healing of the wound
- protector properties: antioxidant characteristics in protecting glutamine synthetase from inactivation [3]: close to the recombinant full-size Prx Vlhum

B2: Prx VIrat: natural peroxiredoxin isolated from the olfactory epithelium of a Wistar line rat, 223 amino acids (protein, UniProt O35244 2-224, looked up)
Peroxiredoxin-6: PGGLLLGDEAPNFEANTTIGHIRFHDFLGDSWGILFSHPRDFTPVCTTELGRAAKLAPEFAKRNVKLIALSIDSVEDHFAWSKDINAYNGAAPTEKLPFPIIDDKDRDLAILLGMLDPAEKDEKGMPVTARVVFIFGPDKKLKLSILYPATTGRNFDEILRVVDSLQLTASNPVATPVDWKKGESVMVLPTLPEEEAKQLFPKGVFTKELPSGKKYLRYTPQP
- effect on the number of live line L929 cells [4]: did not produce any effect
- cell proliferation level of T-lymphocytes stimulated with concavalin A [5]: increased approximately twofold
